The results in this text go back to US8653000B2, “Imine substituted 2,4-diaryl-pyrroline derivatives as pesticides” (BASF SE, priority 2010, dated 2014).

Some results are limits rather than exact numbers.

Assay type in all cases: in vivo
The subject of series [1] is Orchid Thrips (Dichromothrips corbetti). Briefly: Orchid thrips floral-immersion test. Conditions: 96 h, after 4 days, read-out: mortality in comparison with untreated controls. How it is done: B.6 Orchid Thrips (Dichromothrips corbetti)
Dichromothrips corbettiadults used for bioassay were obtained from a colony maintained continuously under laboratory conditions. For testing purposes, the test compound was diluted to a concentration of 500 ppm (wt compound: vol diluent) in a 1:1 mixture of acetone:water (vol:vol), plus 0.01% vol/vol Kinetic® surfactant.
Thrips potency of each compound was evaluated by using a floral-immersion technique. Plastic petri dishes were used as test arenas. All petals of individual, intact or chid flowers were dipped into treatment solution and allowed to dry. Treated flowers were placed into individual petri dishes along with 10-15 adult thrips. The petri dishes were then covered with lids. All test arenas were held under continuous light and a temperature of about 28° C. for duration of the assay. After 4 days, the numbers of live thrips were counted on each flower, and along inner walls of each petri dish. The level of thrips mortality was extrapolated from pre-treatment thrips numbers.

Series [2] has as its system Red Spider Mite (Tetranychus Kanzawai). Put plainly: Red spider mite spray test on potted cowpea beans. The following applies: cowpea beans sprayed, after 72 h, read-out: mortality in comparison with untreated controls. How it is done: B.14 Red Spider Mite (Tetranychus Kanzawai)
The active compound was dissolved at the desired concentration in a mixture of 1:1 (v/v) distilled water:acetone. A surfactant (Alkamuls® EL 620) was added at the rate of 0.1% (v/v).
Potted cowpea beans of 7-10 days of age were cleaned with tap water and sprayed with 5 ml of the test solution using air driven hand atomizer. The treated plants were allowed to air dry and afterwards inculated with 20 or more mites by clipping a cassaya leaf section with known mite population. Treated plants were placed inside a holding room at about 25-27° C. and about 50-60% relative humidity.
Mortality was determined by counting the live mites 72 HAT. Percent mortality was assessed after 72 h.

Series [3] deals with tobacco budworm (Heliothis virescens). Briefly: Tobacco budworm microtiter plate test on insect diet with eggs. Conditions: 120 h, sprayed onto insect diet, egg and larval mortality after 5 days, read-out: mortality in comparison with untreated controls. How it is done: B.11 Tobacco Budworm (Heliothis Virescens) I
For evaluating control of tobacco budworm (Heliothis virescens) the test unit consisted of 96-well-microtiter plates containing an insect diet and 15-25 H. virescens eggs. The compounds were formulated using a solution containing 75% v/v water and 25% v/v DMSO. Different concentrations of formulated compounds were sprayed onto the insect diet at 10 μl, using a custom built micro atomizer, at two replications.
(§1) After application, microtiter plates were incubated at about 28±1° C. and about 80±5% relative humidity for 5 days. Egg and larval mortality was then visually assessed.

For series [4], the system named is Cowpea Aphid (Aphis Craccivora). Put plainly: Cowpea aphid spray test on potted cowpea plants. The following applies: cowpea plants sprayed, population reduction assessed after 24, 72 and 120 hours, read-out: mortality in comparison with untreated controls. As for the experimental part:
B.2 Cowpea Aphid (Aphis Craccivora)
Potted cowpea plants colonized with approximately 100-150 aphids of various stages were sprayed after the pest population had been recorded. Population reduction was assessed after 24, 72, and 120 hours.

The subject of series [5] is green peach aphid (Myzus persicae). Put plainly: Green peach aphid systemic test, artificial diet in 96-well plates. Conditions: 72 h, 3 days, read-out: mortality in comparison with untreated controls. An excerpt:
B.4 Green Peach Aphid (Myzus Persicae)
For evaluating control of green peach aphid (Myzus persicae) through systemic means the test unit consisted of 96-well-microtiter plates containing liquid artificial diet under an artificial membrane.
The compounds were formulated using a solution containing 75% v/v water and 25% v/v DMSO. Different concentrations of formulated compounds were pipetted into the aphid diet, using a custom built pipetter, at two replications.
After application, 5-8 adult aphids were placed on the artificial membrane inside the microtiter plate wells. The aphids were then allowed to suck on the treated aphid diet and incubated at about 23±1° C. and about 50±5% relative humidity for 3 days. Aphid mortality and fecundity was then visually assessed.

Series [6] relates to Southern Armyworm (Spodoptera Eridania). Put plainly: Southern armyworm spray test on lima bean plants. Conditions: foliar, 96 h, lima bean foliage sprayed, 4 days after treatment, read-out: mortality in comparison with untreated controls. As for the experimental part: B.9 Southern Armyworm (Spodoptera Eridania)
(§2) The active compounds were formulated in cyclohexanone as a 10,000 ppm solution supplied in tubes. The tubes were inserted into an automated electrostatic sprayer equipped with an atomizing nozzle and they served as stock solutions for which lower dilutions were made in 50% acetone:50% water (v/v). A nonionic surfactant (Kinetic®) was included in the solution at a volume of 0.01% (v/v).
Lima bean plants (variety Sieva) were grown 2 plants to a pot and selected for treatment at the 1st true leaf stage. Test solutions were sprayed onto the foliage by an automated electrostatic plant sprayer equipped with an atomizing spray nozzle. The plants were dried in the sprayer fume hood and then removed from the sprayer. Each pot was placed into perforated plastic bags with a zip closure. About 10 to 11 armyworm larvae were placed into the bag and the bags zipped closed. Test plants were maintained in a growth room at about 25° C. and about 20-40% relative humidity for 4 days, avoiding direct exposure to fluorescent light (24 hour photoperiod) to prevent trapping of heat inside the bags. Mortality and reduced feeding was assessed 4 days after treatment, compared to untreated control plants.

The subject of series [7] is boll weevil (Anthonomus grandis). Put plainly: Boll weevil microtiter plate test on insect diet with eggs. The following applies: 120 h, sprayed onto insect diet, egg and larval mortality after 5 days, read-out: mortality in comparison with untreated controls. How it is done:
B.12 Boll Weevil (Anthonomus Grandis)
For evaluating control of boll weevil (Anthonomus grandis) the test unit consisted of 24-well-microtiter plates containing an insect diet and 20-30 A. grandis eggs.
The compounds were formulated using a solution containing 75% v/v water and 25% v/v DMSO. Different concentrations of formulated compounds were sprayed onto the insect diet at 20 μl, using a custom built micro atomizer, at two replications. After application, microtiter plates were incubated at about 23±1° C. and about 50±5% relative humidity for 5 days. Egg and larval mortality was then visually assessed.

Series [8] concerns vetch aphid (Megoura viciae). Put plainly: Vetch aphid test on broad bean leaf disks in 24-well plates. The following applies: foliar, 120 h, sprayed onto leaf disks, 5 days, read-out: mortality in comparison with untreated controls. How it is done:
B.10 Vetch Aphid (Megoura Viciae)
For evaluating control of vetch aphid (Megoura viciae) through contact or systemic means the test unit consisted of 24-well-microtiter plates containing broad bean leaf disks.
The compounds were formulated using a solution containing 75% v/v water and 25% v/v DMSO. Different concentrations of formulated compounds were sprayed onto the leaf disks at 2.5 μl, using a custom built micro atomizer, at two replications.
After application, the leaf disks were air-dried and 5-8 adult aphids placed on the leaf disks inside the microtiter plate wells. The aphids were then allowed to suck on the treated leaf disks and incubated at about 23±1° C. and about 50±5% relative humidity for 5 days. Aphid mortality and fecundity was then visually assessed.

Series [9] has as its system Diamond Back Moth (Plutella Xylostella). Put plainly: Diamond back moth leaf-dip test on Chinese cabbage. The following applies: foliar, mortality recorded 24, 72 and 120 hours after treatment, read-out: mortality in comparison with untreated controls. As for the experimental part:
B.3 Diamond Back Moth (Plutella Xylostella)
Leaves of Chinese cabbage were dipped in test solution and air-dried. Treated leaves were placed in petri dished lined with moist filter paper. Mortality was recorded 24, 72, and 120 hours after treatment.

Series [10] has as its system Mediterranean fruitfly (Ceratitis capitata). Put plainly: Mediterranean fruitfly microtiter plate test on insect diet with eggs. The following applies: 120 h, sprayed onto insect diet, egg and larval mortality after 5 days, read-out: mortality in comparison with untreated controls. As for the experimental part:
B.5 Mediterranean Fruitfly (Ceratitis Capitata)
For evaluating control of Mediterranean fruitfly (Ceratitis capitata) the test unit consisted of microtiter plates containing an insect diet and 50-80 C. capitata eggs.
The compounds were formulated using a solution containing 75% v/v water and 25% v/v DMSO. Different concentrations of formulated compounds were sprayed onto the insect diet at 5 μl, using a custom built micro atomizer, at two replications.
as §1

The subject of series [11] is Colorado Potato Beetle (Leptinotarsa Decemlineata). Put plainly: Colorado potato beetle test on sprayed eggplant foliage. The following applies: at 10 ppm, 4 days after treatment. As for the experimental part: B.13 Colorado Potato Beetle (Leptinotarsa Decemlineata)
as §2
Eggplants were grown 2 plants to a pot and were selected for treatment at the 1st true leaf stage. Test solutions were sprayed onto the foliage by an automated electrostatic plant sprayer equipped with an atomizing spray nozzle. The plants were dried in the sprayer fume hood and then removed from the sprayer. The treated foliage was then cut and removed from the pot and placed in a 5-inch Petri dish lined with moistened filter paper. Five beetle larvae were introduced into each Petri dish and the dish was covered by a Petri dish lid. Petri dishes were maintained in a growth room at 25° C. and 20-40% relative humidity for 4 days, avoiding direct exposure to fluorescent light (24 hour photoperiod) to prevent trapping of heat inside the dishes. Mortality and reduced feeding were assessed 4 days after treatment, compared to untreated control plants.

The test system of series [12] is Silverleaf Whitefly (Bemisia Argentifolii). Put plainly: Silverleaf whitefly spray test on cotton plants. Conditions: at 300 ppm; cotton plants sprayed; 3 days after treatment. An excerpt:
B.8 Silverleaf Whitefly (Bemisia Argentifolii)
The active compounds were formulated in cyclohexanone as a 10,000 ppm solution supplied in tubes. The tubes were inserted into an automated electrostatic sprayer equipped with an atomizing nozzle and they served as stock solutions for which lower dilutions were made in 50% acetone:50% water (v/v). A nonionic surfactant (Kinetic) was included in the solution at a volume of 0.01% (v/v).
Cotton plants at the cotyledon stage (one plant per pot) were sprayed by an automated electrostatic plant sprayer equipped with an atomizing spray nozzle. The plants were dried in the sprayer fume hood and then removed from the sprayer. Each pot was placed into a plastic cup and about 10 to 12 whitefly adults (approximately 3-5 days old) were introduced. The insects were collected using an aspirator and a nontoxic Tygon® tubing connected to a barrier pipette tip. The tip, containing the collected insects, was then gently inserted into the soil containing the treated plant, allowing insects to crawl out of the tip to reach the foliage for feeding. Cups were covered with a reusable screened lid. […] Mortality was assessed 3 days after treatment, compared to untreated control plants.

One may read the mortality as the percentage killed. As to `Cc1cc(C2=NCC(c3cc(Cl)cc(Cl)c3)(C(F)(F)F)C2)ccc1/C=N/NC(=O)NCC(F)(F)F` (stereo not drawn) [Compound 1-3, 1-[(E)-[4-[3-(3,5-dichlorophenyl)-3-(trifluoromethyl)-2,4-dihydropyrrol-5-yl]-2-methyl-phenyl]methyleneamino]-3-(2,2,2-trifluoroethyl)urea], the mortality at 500 ppm in series [1], in [2], in series [4] and in series [9] was ≥ 75% each time. For the same compound, the mortality at 2500 ppm in [3], in series [5], in series [7], in [8] and in series [10] was ≥ 75% each time. Further, the mortality at 1 ppm in series [6] was ≥ 75%.

Regarding `CNC(=O)NN=Cc1ccc(C2=NCC(c3cc(Cl)cc(Cl)c3)(C(F)(F)F)C2)cc1Cl` (racemic) [Compound 2-4], the “mortality in comparison with untreated controls” value in [11] was “at least 75%”.

In the case of `O=C(NCC(F)(F)F)NN=Cc1ccc(C2=NCC(c3cc(Cl)cc(Cl)c3)(C(F)(F)F)C2)cc1Cl` (racemic) [Compound 2-3], the “mortality in comparison with untreated controls” value in series [12] is reported as “at least 75%”.
